The target of test [1] is NAMPT (Homo sapiens, UniProt P43490). In words: TR-FRET Binding Assay of NAMPT with PRPP. Particulars: with 200 μM PRPP and 2.5 mM ATP; 2 nM NAMPT, 2 nM probe, 16 hours equilibration. An outline of the steps:
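Read-out is TR-FRET after a 16 h equilibration allowing possible compound modification by the enzyme. Final mix: 2 nM NAMPT, 2 nM probe, 1 nM Tb-anti-His antibody, 200 μM PRPP, 2.5 mM ATP, 2% DMSO.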
For orientation: TR-FRET usually uses a lanthanide donor and a delayed reading to cut background.

The subject of test [2] is PC3 cells. In words: NAMPT Cell Proliferation Assay. In kind it is cell-based. Particulars: Homo sapiens, PC-3, 120 h, 5 days incubation, cell viability by Cell Titer Glo. An outline of the steps:
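IC50 values derive from sigmoidal dose-response fits of percent inhibition of PC3 viability, measured by luminescence after 5 days of compound treatment. Cells (500/well, RPMI containing 10% heat-inactivated FBS) are allowed to attach overnight, and compounds are tested at 10-fold dilutions between 10 μM and 1×10^−5 μM.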
Background: ATP-based viability assays read luminescence as a measure of living cells.

Test [3] addresses NAMPT (human, recombinant, C-terminally His-tagged) (Homo sapiens, UniProt P43490). The test is described as follows: Time-Resolved Fluorescence Resonance Energy Transfer (TR-FRET) Binding Assay of NAMPT. Particulars: without substrates; 6.8 nM NAMPT, 200 nM probe, 3 hours equilibration. An outline of the steps: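 Competitive binding against an Oregon Green 488 tracer (200 nM), 6.8 nM His-tagged enzyme, 1 nM Tb antibody, 2% DMSO, 3 h at RT. IC50 derived from TR-FRET ratios.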

Bounds are passed on as bounds.

As usually defined, the IC50 is the concentration needed to halve the response being measured.

Chain of NAMPT (P43490 whole entry): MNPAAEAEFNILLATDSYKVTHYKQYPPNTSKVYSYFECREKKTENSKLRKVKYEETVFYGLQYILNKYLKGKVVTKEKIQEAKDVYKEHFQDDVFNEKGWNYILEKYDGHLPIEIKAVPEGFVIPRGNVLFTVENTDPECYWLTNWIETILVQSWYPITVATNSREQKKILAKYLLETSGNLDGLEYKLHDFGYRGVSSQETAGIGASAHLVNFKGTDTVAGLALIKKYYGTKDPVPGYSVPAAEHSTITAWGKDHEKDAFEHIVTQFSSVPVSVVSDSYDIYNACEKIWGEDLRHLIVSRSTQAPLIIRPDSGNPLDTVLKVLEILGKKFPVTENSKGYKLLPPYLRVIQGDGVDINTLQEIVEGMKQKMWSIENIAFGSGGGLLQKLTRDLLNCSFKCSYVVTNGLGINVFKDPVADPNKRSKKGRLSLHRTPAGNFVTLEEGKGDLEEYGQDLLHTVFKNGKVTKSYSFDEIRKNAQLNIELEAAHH
Chain of NAMPT (human, recombinant, C-terminally His-tagged) (P43490 whole entry): as above

Regarding `O=C(NCc1ccn2ccnc2c1)Nc1ccc(O[C@@H]2CCN(C(=O)[C@@H]3CCCO3)C2)cc1` [Example 336, 1-(imidazo[1,2-a]pyridin-7-ylmethyl)-3-[4-({(3R)-1-[(2S)-tetrahydrofuran-2-ylcarbonyl]pyrrolidin-3-yl}oxy)phenyl]urea], the IC50 in test [1] was 0.264 nM; in test [2], 139 nM; in test [3] it was 334 nM.

Turning to `O=C(NCc1ccn2ccnc2c1)Nc1ccc(O[C@@H]2CCN(C(=O)C3CCOC3)C2)cc1` (stereo partly drawn) [Example 337, 1-(imidazo[1,2-a]pyridin-7-ylmethyl)-3-(4-{[(3R)-1-(tetrahydrofuran-3-ylcarbonyl)pyrrolidin-3-yl]oxy}phenyl)urea], the IC50 in test [1] worked out at 0.205 nM; in test [2] it was 533 nM; in test [3], 497 nM.

As to `O=C(NCc1ccn2ccnc2c1)Nc1ccc(O[C@@H]2CCN(C(=O)CC3CCOCC3)C2)cc1` [Example 338, 1-(imidazo[1,2-a]pyridin-7-ylmethyl)-3-(4-{[(3R)-1-(tetrahydro-2H-pyran-4-ylacetyl)pyrrolidin-3-yl]oxy}phenyl)urea], the IC50 in test [1] is 0.394 nM; in test [2] it was 81 nM; in test [3], 609 nM.

Regarding `O=C(NCc1ccn2ccnc2c1)c1ccc(O[C@H]2CCN(C(=O)[C@@H]3CCOC3)C2)cc1` [Example 339, N-(imidazo[1,2-a]pyridin-7-ylmethyl)-4-({(3S)-1-[(3R)-tetrahydrofuran-3-ylcarbonyl]pyrrolidin-3-yl}oxy)benzamide], the figures for the IC50 in test [1], in test [2] and in test [3] were 0.797 nM, 9180 nM and more than 10000 nM, respectively.

Take `O=C(NCc1ccn2ccnc2c1)c1ccc(O[C@H]2CCN(C(=O)[C@H]3CCCO3)C2)cc1` [Example 340, N-(imidazo[1,2-a]pyridin-7-ylmethyl)-4-({(3S)-1-[(2R)-tetrahydrofuran-2-ylcarbonyl]pyrrolidin-3-yl}oxy)benzamide]: the half-maximal inhibitory concentration (IC50) in test [1] is 0.817 nM; in test [2], more than 10000 nM; in test [3], more than 10000 nM.

In the case of `O=C(NCc1ccn2ccnc2c1)c1ccc(O[C@H]2CCN(C(=O)[C@@H]3CCCO3)C2)cc1` [Example 341, N-(imidazo[1,2-a]pyridin-7-ylmethyl)-4-({(3S)-1-[(2S)-tetrahydrofuran-2-ylcarbonyl]pyrrolidin-3-yl}oxy)benzamide], the concentration for half-maximal inhibition (IC50) in test [1] was 0.719 nM; in test [2], 8300 nM; in test [3] it was more than 10000 nM.

In the case of `O=C(NCc1ccn2ccnc2c1)c1ccc(O[C@H]2CCN(C(=O)C3CCOCC3)C2)cc1` [Example 342, N-(imidazo[1,2-a]pyridin-7-ylmethyl)-4-{[(3S)-1-(tetrahydro-2H-pyran-4-ylcarbonyl)pyrrolidin-3-yl]oxy}benzamide], the values for the IC50 in test [1], in test [2] and in test [3] were 0.454 nM, 6730 nM and more than 10000 nM, respectively.

With `O=C(NCc1ccn2ccnc2c1)c1ccc(O[C@H]2CCN(C(=O)CC3CCOCC3)C2)cc1` [Example 343, N-(imidazo[1,2-a]pyridin-7-ylmethyl)-4-{[(3S)-1-(tetrahydro-2H-pyran-4-ylacetyl)pyrrolidin-3-yl]oxy}benzamide], the IC50 was 0.456 nM in test [1], 6530 nM in test [2] and more than 10000 nM in test [3].

Regarding `O=C(NCc1ccn2ccnc2c1)c1ccc(-c2cnn(CC3CCCS(=O)(=O)C3)c2)s1` (stereo not drawn) [Example 344, 5-{1-[(1,1-dioxidotetrahydro-2H-thiopyran-3-yl)methyl]-1H-pyrazol-4-yl}-N-(imidazo[1,2-a]pyridin-7-ylmethyl)thiophene-2-carboxamide], the figures for the concentration for half-maximal inhibition (IC50) in test [1], in test [2] and in test [3] were 0.169 nM, 7.46 nM and 36 nM, respectively.

In the case of `Cn1cc(-c2ccc(C(=O)NCc3ccn4ccnc4c3)s2)cn1` [Example 345, N-(imidazo[1,2-a]pyridin-7-ylmethyl)-5-(1-methyl-1H-pyrazol-4-yl)thiophene-2-carboxamide], the results for the IC50 in test [1], in test [2] and in test [3] were 0.27 nM, 281 nM and 201 nM, respectively.
